Results reported in patent US4210660A, “Benzamide derivatives” (Yamanouchi Pharmaceutical Co., Ltd., priority 1978, dated 1980).
Where two headings read alike, the source gives them in different places.

Test system: apomorphine-induced stereotyped behavior
Test: Activity in reducing apomorphine-induced stereotyped behavior (method of Janssen et al.)
Format: in vivo, rats (male, Wistar)
Conditions: sc
From the text: In the following Experiment I, the compounds of this invention were compared with chlorpromazine which is a typical antipsychotic and other known structurally similar compounds in their activity in reducing apomorphine-induced stereotyped behavior.

[1] = test sample subcutaneous to rat, after 30 minutes 1.25 mg/kg apomorphine intravenously, observed 5, 10 and 20 minutes later, read-out: ED50

Row | SMILES | ED50 (Rattus norvegicus) | ED50 [1]
1 | CN(C)CCCN1c2ccccc2Sc2ccc(Cl)cc21 [Chlorpromazine] | 2.5 mg/kg | –
2 | CNc1cc(OC)c(C(=O)NC2CCN(Cc3ccccc3)C2C)cc1Cl (stereo not shown) [Example 3, N-(1-benzyl-2-methylpyrrolidin-3-yl)-5-chloro-2-methoxy-4-methylaminobenzamide] | – | 0.01 mg/kg
3 | CCN1CCCC1CNC(=O)c1cc(S(N)(=O)=O)ccc1OC (stereo not shown) [Sulpiride] | – | > 100 mg/kg
4 | CCN1CCCC1CNC(=O)c1cc(S(=O)(=O)CC)ccc1OC (stereo not shown) [Sultopiride] | – | 18 mg/kg
